In ChEMBL document CHEMBL4825735, “Estimation of the lipophilicity of purine-2,6-dione-based TRPA1 antagonists and PDE4/7 inhibitors with analgesic activity” (Bioorg Med Chem Lett, 2021) one finds logP and Rm data, which are given here for 26 compounds.

A short description of the first data set: Lipophilicity, logP of compound by shake flask method. The data set is classed as physicochemical. The note with it: octanol/water.
As to `COc1ccc(Cc2nccc3cc(OC)c(OC)cc23)cc1OC` [PAPAVERINE], the logP stood at 3.

The nature of the next data set: Relative lipophilicity of the compound in methanol assessed as retardation factor by reversed-phase TLC analysis. The data set is classed as physicochemical.
Settings: not given
Turning to `CCCOc1nc2c(c(=O)n(C)c(=O)n2C)n1CCCC(=O)Nc1ccc(C(C)C)cc1`, the Rm was 4.4.

Consider `COc1ccc(Cc2nccc3cc(OC)c(OC)cc23)cc1OC` [PAPAVERINE], for which the Rm was 2.79. On to `CCOc1nc2c(c(=O)n(C)c(=O)n2C)n1CCCC(=O)Nc1ccc(C(C)C)cc1`, for which the Rm is on record as 4.4. Still for that read-out and setting: with `COc1nc2c(c(=O)n(C)c(=O)n2C)n1CCCC(=O)Nc1ccc(C(C)(C)C)cc1` the figure was 3.82.

For `CCOc1nc2c(c(=O)n(C)c(=O)n2C)n1CC(=O)Nc1ccc(C(C)C)cc1`, the Rm was 3.86. Same read-out and setting: with `CCC1(CC)C(=O)NC(=O)NC1=O` [BARBITAL] the figure was 0.8; with `Cn1cnc2c1c(=O)[nH]c(=O)n2C` [THEOBROMINE], 0.26. With `O=c1n(CCCN2CCN(c3cccc(Cl)c3)CC2)nc2ccccn12` [TRAZODONE], the Rm turned out to be 2.65. On the same count and under the same terms, with `CCCCOc1nc2c(c(=O)n(C)c(=O)n2C)n1CCCC(=O)Nc1ccc(C(C)CC)cc1` (configuration not stated) the figure was 4.7; with `CCC1(c2ccccc2)C(=O)NC(=O)NC1=O` [PHENOBARBITAL], 1.9; with `CCOC(=O)c1ccc(N)cc1` [BENZOCAINE], 1.92.

As for `COc1nc2c(c(=O)n(C)c(=O)n2C)n1CC(=O)Nc1ccc(C(C)C)cc1`, the Rm was determined as 3.28.

Take `CCCCOc1nc2c(c(=O)n(C)c(=O)n2C)n1CCCC(=O)Nc1cc(C(C)CC)ccc1O` (configuration not stated): the Rm was 4.87. Same read-out and setting: the figure for `CCOc1nc2c(c(=O)n(C)c(=O)n2C)n1CC(=O)Nc1ccc(C(C)(C)C)cc1` is 3.99; for `O=C1NC(=O)C(c2ccccc2)(c2ccccc2)N1` [PHENYTOIN] it is 2.43; for `C[C@]12C=CC(=O)C=C1CC[C@@H]1[C@@H]2[C@@H](O)C[C@@]2(C)[C@H]1CC[C@]2(O)C(=O)CO` [PREDNISOLONE] it is 2.49.

With `O=C(CCCN1CCC(O)(c2ccc(Cl)cc2)CC1)c1ccc(F)cc1` [HALOPERIDOL], the Rm came out at 3.61. On the same count and under the same terms, with `CCCOc1nc2c(c(=O)n(C)c(=O)n2C)n1CCCC(=O)Nc1ccc(C(C)(C)C)cc1` the figure was 4.81. Same read-out and setting: the figure for `COc1nc2c(c(=O)n(C)c(=O)n2C)n1CCCC(=O)Nc1ccc(C(C)C)cc1` is 3.8; for `Cn1c(=O)c2[nH]cnc2n(C)c1=O.O` [THEOPHYLLINE] it is 0.61; for `CC(=O)Nc1ccc(O)cc1` [ACETAMINOPHEN] it is 0.31. Still for that read-out and setting: with `CCCOc1nc2c(c(=O)n(C)c(=O)n2C)n1CCCC(=O)Nc1ccc(C(C)CC)cc1` (configuration not stated) the figure was 4.86; with `COc1nc2c(c(=O)n(C)c(=O)n2C)n1CC(=O)Nc1ccc(C(C)(C)C)cc1`, 3.92.

For the compound `CCCOc1nc2c(c(=O)n(C)c(=O)n2C)n1CCCC(=O)Nc1cc(C(C)CC)ccc1O` (configuration not stated), the Rm stood at 4.52. Still for that read-out and setting: the figure for `CCN(CC)CC(=O)Nc1c(C)cccc1C` [LIDOCAINE] is 1.31; for `CCOc1nc2c(c(=O)n(C)c(=O)n2C)n1CCCC(=O)Nc1ccc(C(C)(C)C)cc1` it is 3.84.

What is called logP is a log measure of how a compound divides between an organic and an aqueous phase. A low value points to lower lipophilicity.
